Test results as given in ChEMBL document CHEMBL1201862, “PubChem BioAssay data set” (2004).
The source made the active and inactive calls.

How the values were obtained:
Cytochrome P450 2C9 = Cytochrome P450 2C9 (Homo sapiens, UniProt P11712)
Aspartyl aminopeptidase = target: T1, Aspartyl aminopeptidase (Plasmodium falciparum 3D7, UniProt Q8I2J3); test: Counterscreen for inhibitors of M1 and M17 aminopeptidases: QFRET-based biochemical high throughput dose response assay for inhibitors of the Plasmodium falciparum M18 Aspartyl Aminopeptidase (PFM18AAP). [Related PubChem assays: 1619 (Screening assay (M17LAP inhibitors).), 1445 (Screening assay (M1AAP inhibitors).)]
T1 sequence (Q8I2J3 whole entry): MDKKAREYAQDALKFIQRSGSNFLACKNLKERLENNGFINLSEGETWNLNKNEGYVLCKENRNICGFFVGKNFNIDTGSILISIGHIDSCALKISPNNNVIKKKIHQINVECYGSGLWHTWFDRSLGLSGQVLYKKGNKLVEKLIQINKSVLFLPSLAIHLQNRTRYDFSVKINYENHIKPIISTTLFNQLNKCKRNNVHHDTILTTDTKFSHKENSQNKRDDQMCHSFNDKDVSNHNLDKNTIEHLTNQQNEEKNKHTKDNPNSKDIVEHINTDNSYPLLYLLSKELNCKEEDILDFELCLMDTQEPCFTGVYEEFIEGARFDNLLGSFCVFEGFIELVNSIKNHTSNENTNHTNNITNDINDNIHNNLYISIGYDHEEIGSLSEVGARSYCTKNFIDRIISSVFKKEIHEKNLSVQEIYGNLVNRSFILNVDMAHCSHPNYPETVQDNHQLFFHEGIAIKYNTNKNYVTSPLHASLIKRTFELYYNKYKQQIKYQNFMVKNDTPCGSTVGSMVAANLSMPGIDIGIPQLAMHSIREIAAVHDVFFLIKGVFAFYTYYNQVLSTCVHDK

Leucine aminopeptidase = target: T2, Leucine aminopeptidase (Plasmodium falciparum 3D7, UniProt Q8IL11); test: P. falciparum M17LAP inhibitors, primary screen, biochemical, fluorogenic H-Leu-NHMec substrate, 1536-well (AID 1619); assay type: functional
T2 sequence (Q8IL11 whole entry): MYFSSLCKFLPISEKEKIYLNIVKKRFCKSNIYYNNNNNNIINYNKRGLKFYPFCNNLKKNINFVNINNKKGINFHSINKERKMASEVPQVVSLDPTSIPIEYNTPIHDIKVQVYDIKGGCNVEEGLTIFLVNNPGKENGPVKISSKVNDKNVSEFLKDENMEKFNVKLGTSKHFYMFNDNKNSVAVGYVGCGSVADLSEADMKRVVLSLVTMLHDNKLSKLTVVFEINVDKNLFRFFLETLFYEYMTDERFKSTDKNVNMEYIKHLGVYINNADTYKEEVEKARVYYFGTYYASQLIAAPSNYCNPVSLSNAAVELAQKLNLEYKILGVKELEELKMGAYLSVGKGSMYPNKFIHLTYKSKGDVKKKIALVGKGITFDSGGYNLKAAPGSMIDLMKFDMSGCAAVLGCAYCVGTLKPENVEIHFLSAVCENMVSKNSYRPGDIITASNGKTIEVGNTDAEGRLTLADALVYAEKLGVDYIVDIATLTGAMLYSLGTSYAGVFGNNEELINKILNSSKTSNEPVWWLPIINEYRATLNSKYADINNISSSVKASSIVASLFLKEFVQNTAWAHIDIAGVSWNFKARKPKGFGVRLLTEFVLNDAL

Procathepsin L = Procathepsin L (Homo sapiens, UniProt P07711); test: cathepsin L inhibitors, dose response, counter-screen for M1/M17 aminopeptidase inhibitor project, biochemical, QFRET, 1536-well (AID 2214)
Procathepsin L, sequence (P07711 whole entry): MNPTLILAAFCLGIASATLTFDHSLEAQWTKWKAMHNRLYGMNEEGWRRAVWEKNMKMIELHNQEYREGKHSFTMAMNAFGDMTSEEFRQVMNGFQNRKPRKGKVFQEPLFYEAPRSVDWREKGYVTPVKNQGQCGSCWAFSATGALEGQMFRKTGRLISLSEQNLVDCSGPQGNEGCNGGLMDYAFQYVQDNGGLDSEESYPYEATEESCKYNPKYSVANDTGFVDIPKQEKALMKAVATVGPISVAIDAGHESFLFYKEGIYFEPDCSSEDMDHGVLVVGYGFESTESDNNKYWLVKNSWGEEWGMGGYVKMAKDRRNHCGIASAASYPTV

Cytochrome P450 2C19 = Cytochrome P450 2C19 (Homo sapiens, UniProt P33261); test: Cytochrome panel assay with activity outcomes. Panel member name: p450-cyp2c19 Compounds with AC50 equal or less than 10 uM are considered active; assay type: functional; details: read-out: AC50
Cytochrome P450 2C19, sequence (P33261 whole entry): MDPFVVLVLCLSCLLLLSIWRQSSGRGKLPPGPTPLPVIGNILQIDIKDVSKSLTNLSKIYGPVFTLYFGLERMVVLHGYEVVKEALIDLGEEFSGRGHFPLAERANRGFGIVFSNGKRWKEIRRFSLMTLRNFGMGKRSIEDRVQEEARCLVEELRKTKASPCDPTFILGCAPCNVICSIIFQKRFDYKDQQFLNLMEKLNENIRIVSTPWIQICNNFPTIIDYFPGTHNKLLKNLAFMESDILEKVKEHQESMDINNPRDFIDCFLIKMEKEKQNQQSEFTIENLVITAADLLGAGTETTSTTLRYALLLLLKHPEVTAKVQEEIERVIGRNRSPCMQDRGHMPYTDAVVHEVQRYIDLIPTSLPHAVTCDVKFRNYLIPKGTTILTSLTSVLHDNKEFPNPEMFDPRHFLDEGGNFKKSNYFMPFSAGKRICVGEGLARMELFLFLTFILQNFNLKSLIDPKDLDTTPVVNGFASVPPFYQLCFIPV

[1] = target: T3, Mitochondrial peptide methionine sulfoxide reductase (Bos taurus, UniProt P54149); test: Absorbance-based biochemical high throughput dose response assay for activators of Methionine sulfoxide reductase A (MsrA).; assay type: functional
T3 sequence (P54149 whole entry): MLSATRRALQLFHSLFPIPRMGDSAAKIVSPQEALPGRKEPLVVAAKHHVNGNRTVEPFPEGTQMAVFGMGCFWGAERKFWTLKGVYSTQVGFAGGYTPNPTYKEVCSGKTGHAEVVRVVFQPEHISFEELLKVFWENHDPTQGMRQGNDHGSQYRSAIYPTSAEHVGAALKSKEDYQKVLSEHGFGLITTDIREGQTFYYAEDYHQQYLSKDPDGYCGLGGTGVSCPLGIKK

[2] = target: T4, Mannose-6-phosphate isomerase (Homo sapiens, UniProt P34949); test: inhibitors of human PMI, primary screen, biochemical, fluorescence intensity, coupled assay (AID 1209)
T4 sequence (P34949 whole entry): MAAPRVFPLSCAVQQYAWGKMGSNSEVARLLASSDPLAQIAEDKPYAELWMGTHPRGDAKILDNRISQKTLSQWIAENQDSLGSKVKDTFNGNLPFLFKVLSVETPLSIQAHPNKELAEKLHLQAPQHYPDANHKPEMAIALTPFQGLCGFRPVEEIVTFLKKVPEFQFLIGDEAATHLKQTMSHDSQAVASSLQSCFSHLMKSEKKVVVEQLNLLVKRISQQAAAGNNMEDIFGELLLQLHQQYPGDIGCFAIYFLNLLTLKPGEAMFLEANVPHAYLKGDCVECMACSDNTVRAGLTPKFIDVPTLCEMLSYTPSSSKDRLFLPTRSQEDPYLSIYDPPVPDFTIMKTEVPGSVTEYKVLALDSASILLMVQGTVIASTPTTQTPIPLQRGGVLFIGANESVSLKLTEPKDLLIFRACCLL

Phosphomannomutase 2 = Phosphomannomutase 2 (Homo sapiens, UniProt O15305); test: Counter screen SAR assay for PMM2 inhibitors via a fluorescence intensity assay. [Related pubchem assays (depositor defined):AID1545, AID1574]
Phosphomannomutase 2, sequence (O15305 whole entry): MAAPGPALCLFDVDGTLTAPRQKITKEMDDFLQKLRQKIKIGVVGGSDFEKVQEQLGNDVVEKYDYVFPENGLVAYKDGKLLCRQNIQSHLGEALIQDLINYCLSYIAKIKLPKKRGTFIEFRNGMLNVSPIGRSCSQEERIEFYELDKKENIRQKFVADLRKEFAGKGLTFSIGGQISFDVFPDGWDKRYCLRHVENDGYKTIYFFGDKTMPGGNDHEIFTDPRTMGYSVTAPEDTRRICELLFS

[3] = target: T4, Mannose-6-phosphate isomerase; test: PMI enzyme inhibitors, confirmation, biochemical, fluorescence intensity (AID 1535)
NS3 = NS3 (Hepatitis C virus, UniProt A3EZJ3); test: PubChem AID 2173; parameters: species or system Hepacivirus hominis
NS3, sequence (A3EZJ3 whole entry): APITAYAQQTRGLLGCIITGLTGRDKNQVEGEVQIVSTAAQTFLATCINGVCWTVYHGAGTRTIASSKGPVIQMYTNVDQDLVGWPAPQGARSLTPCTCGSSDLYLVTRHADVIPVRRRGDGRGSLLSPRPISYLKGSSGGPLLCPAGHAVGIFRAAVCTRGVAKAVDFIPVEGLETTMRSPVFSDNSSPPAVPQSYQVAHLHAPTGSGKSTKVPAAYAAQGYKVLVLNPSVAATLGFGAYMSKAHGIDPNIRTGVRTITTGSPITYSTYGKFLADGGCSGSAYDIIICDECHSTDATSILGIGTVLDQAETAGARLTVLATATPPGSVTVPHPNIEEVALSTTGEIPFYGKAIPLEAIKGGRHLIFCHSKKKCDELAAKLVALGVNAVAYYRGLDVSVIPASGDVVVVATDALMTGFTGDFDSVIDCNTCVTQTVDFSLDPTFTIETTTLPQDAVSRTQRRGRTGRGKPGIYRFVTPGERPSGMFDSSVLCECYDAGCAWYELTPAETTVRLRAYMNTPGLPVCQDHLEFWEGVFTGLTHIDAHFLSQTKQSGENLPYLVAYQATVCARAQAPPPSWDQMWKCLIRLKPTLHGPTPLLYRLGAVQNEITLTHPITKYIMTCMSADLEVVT

[4] = Luminescence Cell-Based/Microorganism Confirmation at Dose of Inhibitors of Trypanosoma cruzi Infection. [Related pubchem assays: 1885, 1968 ]; assay type: functional
[5] = inhibitors of intracellular T. cruzi replication, confirmation, NIH3T3 host cells, beta-gal luminescence (AID 2044); assay type: functional, cell-based;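 further: intracellular parasites grown in NIH/3T3 mouse fibroblasts as host cells; luminescent beta-galactosidase reporter signal from transgenic T. cruzi replicating inside host cells; inhibitors lower the luminescence signal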
[6] = cytotoxicity toward NIH3T3 fibroblasts, dose response, counter-screen, cell-based, ATP luminescence, mouse fibroblasts (AID 2010); assay type: functional;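 further: cells exposed to compound for about 90 hours before reading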
[7] = Luminescence Cell-Based Secondary HTS screen to identify cytotoxic compounds of NIH3T3 cells. [Related pubchem assays: 1885, 1968 ]; assay type: functional
[8] = target: T5, Short transient receptor potential channel 4 (Mus musculus, UniProt Q9QUQ5); test: mouse TRPC4 channel inhibitors, dose response, cell-based, HEK293 TRPC4/mu-opioid, Fluo-4 calcium (AID 434942); assay type: functional;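 further: potency of inhibitors blocking the TRPC4 calcium response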
T5 sequence (Q9QUQ5 whole entry): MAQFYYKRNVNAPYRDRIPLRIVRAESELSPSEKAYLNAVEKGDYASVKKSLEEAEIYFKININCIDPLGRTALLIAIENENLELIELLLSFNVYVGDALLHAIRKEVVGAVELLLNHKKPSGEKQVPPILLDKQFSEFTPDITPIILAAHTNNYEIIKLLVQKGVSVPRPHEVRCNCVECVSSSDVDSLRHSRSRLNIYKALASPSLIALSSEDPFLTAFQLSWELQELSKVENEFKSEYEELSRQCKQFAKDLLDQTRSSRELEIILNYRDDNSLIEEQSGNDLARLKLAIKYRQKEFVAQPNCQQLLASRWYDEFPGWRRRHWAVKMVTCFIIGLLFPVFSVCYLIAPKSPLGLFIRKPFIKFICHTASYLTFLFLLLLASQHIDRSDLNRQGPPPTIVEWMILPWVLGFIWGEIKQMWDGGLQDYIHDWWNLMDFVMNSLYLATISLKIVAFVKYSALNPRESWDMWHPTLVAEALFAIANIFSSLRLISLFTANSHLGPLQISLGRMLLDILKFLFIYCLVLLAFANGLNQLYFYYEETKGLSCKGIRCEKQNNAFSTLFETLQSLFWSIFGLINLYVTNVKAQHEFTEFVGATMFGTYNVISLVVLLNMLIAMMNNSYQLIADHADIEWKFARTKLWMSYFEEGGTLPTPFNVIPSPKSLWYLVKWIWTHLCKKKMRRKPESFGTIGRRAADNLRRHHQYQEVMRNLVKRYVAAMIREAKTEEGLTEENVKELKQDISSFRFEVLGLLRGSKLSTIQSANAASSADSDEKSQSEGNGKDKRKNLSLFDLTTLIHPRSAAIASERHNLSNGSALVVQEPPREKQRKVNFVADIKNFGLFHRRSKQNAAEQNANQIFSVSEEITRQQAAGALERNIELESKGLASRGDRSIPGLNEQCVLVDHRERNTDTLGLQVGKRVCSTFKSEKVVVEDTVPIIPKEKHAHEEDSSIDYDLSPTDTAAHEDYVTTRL

[9] = inhibitors of Bluetongue virus cytopathic effect, confirmation, arbovirus, BSR cells (AID 1250); assay type: functional;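 further: protection from viral cytopathic effect measured as cell viability by ATP luminescence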
[10] = M. tuberculosis H37Rv growth inhibitors, H37Rv strain (AID 1626); assay type: functional
Melanocortin receptor 4 = Melanocortin receptor 4 (Homo sapiens, UniProt P32245); test: MC4R antagonist potency on cAMP, dose response, cell-based, TR-FRET, biased antagonists (AID 602298); assay type: functional;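 further: antagonist potency against agonist-stimulated cAMP production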
Melanocortin receptor 4, sequence (P32245 whole entry): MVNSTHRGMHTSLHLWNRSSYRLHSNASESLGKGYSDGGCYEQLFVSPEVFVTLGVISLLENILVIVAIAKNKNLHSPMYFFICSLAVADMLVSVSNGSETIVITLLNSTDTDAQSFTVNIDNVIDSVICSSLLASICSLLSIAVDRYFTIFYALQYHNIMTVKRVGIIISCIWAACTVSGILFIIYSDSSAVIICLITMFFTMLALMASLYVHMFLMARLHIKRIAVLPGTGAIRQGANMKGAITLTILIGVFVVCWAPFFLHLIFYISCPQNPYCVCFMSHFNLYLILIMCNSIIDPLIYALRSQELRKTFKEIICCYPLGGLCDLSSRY

[11] = A High Throughput Confirmatory Assay used to Identify Novel Compounds that Inhibit Mycobacterium Tuberculosis in the absence of Glycerol.; assay type: functional
[12] = nonselective inhibitors of cellular cAMP signaling, dose response, counter-screen for MC4R biased antagonist project, cell-based, TR-FRET cAMP detection (AID 602305); assay type: functional;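 further: U2OS cells stimulated with forskolin near its EC80 as the cAMP inducer; potency is for inhibition of forskolin-stimulated cAMP signaling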
Bcl-2-like protein 10 = target: T6, Bcl-2-like protein 10 (Homo sapiens, UniProt Q9HD36); test: Biochemical TR3 FP assay of Bcl-B inhibitor potency, EC50 (AID 1243); assay type: functional
T6 sequence (Q9HD36 whole entry): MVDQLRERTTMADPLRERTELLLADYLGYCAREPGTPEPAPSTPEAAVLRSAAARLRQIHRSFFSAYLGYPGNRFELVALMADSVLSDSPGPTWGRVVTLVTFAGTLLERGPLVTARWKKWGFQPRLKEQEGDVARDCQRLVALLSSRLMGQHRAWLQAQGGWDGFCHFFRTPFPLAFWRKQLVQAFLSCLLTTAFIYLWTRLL

H4 = test: Luminescence Cell-Based Dose Response HTS to Identify Activators of 5'UTR Stem-Loop Driven Prion Protein mRNA Translation in H4 Neuroglioblastoma Cells. [Related pubchem assays: 1829 (Project Summary), 1814 (Primary HTS)]; assay type: functional; details: Homo sapiens
[13] = target: T3, Mitochondrial peptide methionine sulfoxide reductase; assay type: functional
[14] = Luminescence Cell-Based Dose Confirmation HTS to Identify Activators of 5'UTR Stem-Loop Driven Alpha-Synuclein mRNA Translation in H4 Neuroglioblastoma Cells. [Related pubchem assays: 1829 (Project Summary), 1814 (Primary HTS)]; assay type: functional
[15] = target: G2/mitotic-specific cyclin-B1 (Homo sapiens, UniProt P14635); test: Counterscreen assay for inhibitors of Wee1 degradation: dose response cell-based assay to identify inhibitors of cyclin B degradation. [Related pubchem assays: 1410, 1321 ]; assay type: functional
G2/mitotic-specific cyclin-B1, sequence (P14635 whole entry): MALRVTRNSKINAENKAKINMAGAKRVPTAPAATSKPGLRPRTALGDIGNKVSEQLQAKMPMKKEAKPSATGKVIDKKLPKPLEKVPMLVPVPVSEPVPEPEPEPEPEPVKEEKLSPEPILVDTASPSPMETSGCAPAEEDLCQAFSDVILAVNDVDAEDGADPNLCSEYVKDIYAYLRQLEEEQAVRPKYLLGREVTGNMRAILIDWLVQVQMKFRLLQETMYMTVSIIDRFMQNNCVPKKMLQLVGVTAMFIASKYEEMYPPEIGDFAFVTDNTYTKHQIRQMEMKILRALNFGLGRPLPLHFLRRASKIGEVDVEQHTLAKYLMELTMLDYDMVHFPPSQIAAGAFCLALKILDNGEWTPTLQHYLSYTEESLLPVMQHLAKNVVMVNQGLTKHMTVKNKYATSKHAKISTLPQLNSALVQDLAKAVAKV

Wee1-like protein kinase = Wee1-like protein kinase (Homo sapiens, UniProt P30291); test: Dose Response Cell-based Assay for Inhibitors of Wee1 Degradation. [Related pubchem assays: 1410, 1321 ]; assay type: functional
Wee1-like protein kinase, sequence (P30291 whole entry): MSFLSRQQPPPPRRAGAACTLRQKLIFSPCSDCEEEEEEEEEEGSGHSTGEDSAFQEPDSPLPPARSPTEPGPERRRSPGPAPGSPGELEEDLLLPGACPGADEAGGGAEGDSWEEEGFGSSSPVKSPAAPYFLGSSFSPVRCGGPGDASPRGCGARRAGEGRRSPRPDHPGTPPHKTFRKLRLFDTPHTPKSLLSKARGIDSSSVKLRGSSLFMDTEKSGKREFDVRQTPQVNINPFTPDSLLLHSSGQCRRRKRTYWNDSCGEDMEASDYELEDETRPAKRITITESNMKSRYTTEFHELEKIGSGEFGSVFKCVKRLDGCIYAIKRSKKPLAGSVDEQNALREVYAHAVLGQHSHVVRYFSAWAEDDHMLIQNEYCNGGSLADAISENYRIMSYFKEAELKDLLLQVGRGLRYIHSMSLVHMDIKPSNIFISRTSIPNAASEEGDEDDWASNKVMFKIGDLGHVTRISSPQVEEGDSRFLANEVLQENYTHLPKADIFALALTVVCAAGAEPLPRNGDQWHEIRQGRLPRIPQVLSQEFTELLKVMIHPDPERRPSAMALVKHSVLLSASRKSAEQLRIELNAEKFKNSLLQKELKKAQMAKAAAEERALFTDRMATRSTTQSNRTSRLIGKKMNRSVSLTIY

[16] = Luminescence Cell-Based Dose Response HTS to Identify Activators of Luciferase Translation or Activity in H4 […] Cells. [Related pubchem assays: 1829 (Project Summary), 1814 (Primary HTS)]; assay type: functional

Cytochrome P450 2C9, sequence (P11712 whole entry): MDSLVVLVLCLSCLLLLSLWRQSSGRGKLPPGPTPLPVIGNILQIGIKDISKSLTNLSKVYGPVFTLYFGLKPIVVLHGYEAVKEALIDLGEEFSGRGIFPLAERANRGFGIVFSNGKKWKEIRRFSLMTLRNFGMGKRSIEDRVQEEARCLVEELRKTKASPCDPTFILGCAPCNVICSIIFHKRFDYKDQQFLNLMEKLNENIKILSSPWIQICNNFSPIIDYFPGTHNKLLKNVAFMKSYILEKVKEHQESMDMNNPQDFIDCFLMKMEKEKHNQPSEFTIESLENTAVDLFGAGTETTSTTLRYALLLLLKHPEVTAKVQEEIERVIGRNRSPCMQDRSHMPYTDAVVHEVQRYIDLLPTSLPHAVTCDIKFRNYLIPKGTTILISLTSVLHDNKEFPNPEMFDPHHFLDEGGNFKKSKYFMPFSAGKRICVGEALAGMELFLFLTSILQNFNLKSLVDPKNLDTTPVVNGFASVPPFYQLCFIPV

Question: With `COc1ccc(NC(=O)CSC2=NC(=O)CC(C)=N2)cc1` as the compound, how does the AC50 (Cytochrome P450 2C9) read?
Answer: Its AC50 is 25.1 µM (inconclusive).

Question: What about the IC50 (Aspartyl aminopeptidase) of the same compound?
Answer: The IC50 was > 73.5 µM (not active).

Question: And the IC50 (Leucine aminopeptidase)?
Answer: Its IC50 is 3.09 µM (active).

Question: And the IC50 (Procathepsin L)?
Answer: Its IC50 is > 59.6 µM (not active).

Question: And the AC50 (Cytochrome P450 2C19)?
Answer: The AC50 was 15.8 µM (inconclusive).

Question: With `Sc1n[nH]c(-c2cccc(Br)c2)n1` as the compound, how does the EC50 [1] read?
Answer: The EC50 was > 104 µM (inactive).

Question: What about the IC50 [2] of the same compound?
Answer: The IC50 was 14.5 µM (active).

Question: What about the IC50 (Phosphomannomutase 2) of the same compound?
Answer: Its IC50 is > 100 µM (inactive).

Question: What about the IC50 [3] of the same compound?
Answer: The IC50 was 6.15 µM (active).

Question: Which IC50 (NS3) does the source give for `COc1ccc(OC)c(C2CC(=O)N3CN(c4ccccc4F)CSC3=C2C#N)c1` (stereo not drawn) here?
Answer: The IC50 was 6.77 µM (active).

Question: What does the source list for `CC(C)Oc1cccc(C(=O)C2CCCN(Cc3cnn(C(C)C)c3)C2)c1` (stereo not drawn)?
Answer: EC50 (cells): 0.039 µM (active); EC50 [4]: 0.068 µM (active); EC50 [5]: < 0.1 µM (active); EC50 [6]: > 60 µM (not active); EC50 [7]: > 195 µM (not active); EC50 [8]: 2.11 µM (active)

Question: Which IC50 [9] does the source give for `CC(C)CCOc1ccc(/C=C2\CCn3c2nc2cc(C(=O)O)ccc2c3=O)cc1` here?
Answer: The IC50 was 32.2 µM (active).

Question: With `Nc1cc(O)nc(SCC(=O)Nc2ccccc2-c2ccccc2)n1` as the compound, how does the IC50 [10] read?
Answer: The IC50 was > 100 µM (active).

Question: With `CN1CCN(C(=O)/C=C/c2cn(-c3ccccc3)nc2-c2ccc3c(c2)OCCO3)CC1` as the compound, how does the IC50 (Melanocortin receptor 4) read?
Answer: Its IC50 is > 64.6 µM (inactive).

Question: What about the IC50 [11] of the same compound?
Answer: Its IC50 is > 100 µM (active).

Question: And the IC50 [12]?
Answer: The IC50 was > 64.6 µM (inactive).

Question: For `O=C(O)C1Nc2c(C(=O)N3CCCC3)cccc2C2C=CCC12` (stereo not drawn), which EC50 (Bcl-2-like protein 10) is on record?
Answer: Its EC50 is 4.95 µM (active).

Question: Which results are given for `COc1cccc(C2=CC(c3cccc(OC)c3OC)n3nnnc3N2)c1` (stereo not drawn)?
Answer: EC50 (H4): 13.1 µM (active); IC50 [13]: 155 µM (inactive); EC50 [14]: 26.1 µM (active); EC50 [15]: > 49.7 µM (not active); EC50 (Wee1-like protein kinase): > 49.7 µM (not active); EC50 [16]: 17 µM (active)
